Data set [1] is described as follows: Acid-promoted conversion (hydrolysis) as a function of time. The format is physicochemical. Conditions: FIG. 2C. From the text:
The method comprises converting the one or more 6-thioguanine nucleotide compounds to 6-thioguanine or a 6-thioguanine hydrolysis product. The converting can be carried out in any manner known to those of skill in the art. In some embodiments, the converting comprises contacting the one or more 6-thioguanine nucleotide compounds with a sulfur-containing reducing agent to yield one or more reduced 6-thioguanine nucleotide compounds. Any suitable sulfur-containing reducing agent can be used. In some embodiments, the sulfur-containing reducing agent is dithioerythritol. In some such embodiments, the method comprises contacting the one or more reduced 6-thioguanine nucleotide compounds with an acidic hydrolyzing agent. Any suitable acidic hydrolyzing agent can be used. In some embodiments, the acidic hydrolyzing agent is perchloric acid, nitric acid, sulfuric acid, or a combination thereof. In some such embodiments, the acidic hydrolyzing agent is perchloric acid.
In some embodiments the hydrolysis of 6-methylmercaptopurine nucleotide compounds proceeds according to Scheme 2 below. […] The 6-methylmercaptopurine is readily hydrolyzed in the presence of acid to form a 6-methylmercaptopurine hydrolysis product comprising 4-amino-5-(methylthio) carbonyl imidazole. […]

For data set [2] the following is noted: cited from earlier work; for Therapeutic Range: metabolite level in red blood cells of subjects on thiopurine treatment, exemplary therapeutic levels.

Data on four compounds can be found in US20140212981A1, “METHODS AND SYSTEMS FOR DETERMINING THE AMOUNT OF THIOPURINE METABOLITES IN A SAMPLE” (Laboratory Corporation of America Holdings, priority 2012, published 2014).

For `CSc1ncnc2nc[nH]c12` [6-MMP, 6-methylmercaptopurine], the “Time for acid-promoted conversion to hydrolysis product” value in data set [1] (6-MMP to 6-MMP*, perchloric acid hydrolysis) is reported as “less than 140 minutes”.
Take “6-methylmercaptopurine nucleotides [6-MMPNs]”: the “Therapeutic Range” value in data set [2] is listed as less than 5700 pmol/8 × 10^8RBC. Also, in data set [2] (metabolite level in red blood cells, levels in this range require modulation of therapy), the “Alert Values” is recorded as more than 5700 pmol/8 × 10^8RBC.
For the compound 6-thioguanine nucleotides [6-TGNs], the “Therapeutic Range” value in data set [2] is 235 - 450 pmol/8 × 10^8RBC.
`[2H]C([2H])([2H])Sc1ncnc2[nH]cnc12` [D3-6-MMP]: the “Rate of acid-promoted conversion relative to unlabeled 6-MMP” value in data set [1] (D3-6-MMP to D3-6-MMP*) was “same rate as unlabeled 6-MMP”.
